From patent publication US7425579B2, “Methods for inhibiting activity of polyamine transporters” (Universite Laval, priority 1998, dated 2008)
Like-named read-outs stand apart in the source and are kept apart here.

How the values were obtained:
[1] = test system: mammalian polyamine carrier; test: Determination of polyamine uptake activity: inhibition of diamine and polyamine transport in T-47D cells; format: cell-based, human; details: for Ki: mean±SD; for Km: substrate itself
Experimental: The rate of diamine and polyamine transport was determined in T-47D and ZR-75-1 cells incubated in serum-free RPMI 1640 medium as previously described (U.S. Pat. No. 6,083,496; Covassin et al. (1999) Bioorg. Med. Chem. Lett. 9, 1709-1714), using 20 μM [^3H]putrescine (179 Ci/mol), 5 μM [^3H]spermidine (246 Ci/mol) and 3 μM [^14C]spermine (300-400 mCi/mol) respectively, as substrates for a 20-min assay period. Uptake activity was expressed per amount of DNA as fluorometrically determined using 3,5-diaminobenzoic acid (Simard et al. (1990) Endocrinology 126, 3223-3231). Kinetic parameters of polyamine transport inhibition for the transport antagonists were determined by Lineweaver-Burke analysis of uptake activity in the presence of 0.1 μM [^3H]putrescine, 0.03 μM [^3H]spermidine, and 0.01 μM [^14C]spermine plus increasing concentrations of nonradioactive substrate. For competitive inhibitors, Ki values were estimated by iterative curve fitting for sigmoidal equations describing transport rates in the presence of increasing concentrations of antagonist, using the Cheng-Prusoff equation for competitive inhibition (U.S. Pat. No. 6,083,496).
The ability of BSD and BNSD compounds to inhibit uptake of the main natural substrates of the mammalian polyamine carrier, namely putrescine, spermidine and spermine, was evaluated using T-47D human breast cancer cells (Table 1).
Data are presented as the mean±SD of at least two independent determinations of IC50 values, each based on triplicate determinations of uptake velocity at increasing inhibitor concentrations.
The potency of the polyamines and their xylylated dimers as competitive inhibitors of spermidine transport was evaluated in the T-47D human breast cancer cell line (Table 2).

[2] = test system: T-47D cells; test: Reversal of DFMO-induced cytostasis by exogenous spermidine in T-47D cells; format: cell-based, human; details: T-47D cells with extracellular spermidine and DFMO
Experimental: FIGS. 6A, 6B, 6C and 6D are graph showing that antagonism of DFMO-induced cytostasis by exogenous spermidine depends on the polyamine and linker structure of the compounds used in a method according to a preferred embodiment of the invention. In particular, T-47D cells were grown for 8-9 d with the indicated concentrations of spermidine in medium containing 1 mM aminoguanidine, in the presence of DFMO (●), transport inhibitor (□), DFMO plus transport inhibitor (▪), or in the absence of either agent (∘), and total DNA content per culture was then determined. Panels A, B, C, and D describe the effect of BNSD-X, BSD-X, BNSD-3 and BSD-3, respectively. Data are presented as the mean±SD for triplicate cultures from one out of at least two identical experiments;
FIGS. 8A and 8B are graphs representing the time course of the effect of a compound used in a method according to a preferred embodiment of the invention on rescue of DFMO-induced cytostasis by exogenous spermidine. In particular, at time zero, T-47D (panel A) or CHO-K1 (panel B) were seeded at 1×10^4 or 5×10^3 cells/well, respectively, in medium containing 1 mM aminoguanidine, plus either 0.3 μM spermidine (Spd, ●), 2 mM DFMO (□), Spd+DFMO (▪), 50 μM (A) or 100 μM (B) BNSD-X (Δ), BNSD-X+Spd (▴), BNSD-X+DFMO (□), BNSD-X+Spd+DFMO (▾), or vehicle only (∘). At the indicated time, total DNA content/well was determined. Data are presented as the mean±SD for triplicate cultures from one representative experiment;
To determine the ability of polyamine transport antagonists to potentiate DFMO-induced inhibition of cell proliferation in the presence of exogenous polyamines, cells were grown for the indicated period in growth medium supplemented with 1 mM aminoguanidine, and either DFMO (1 to 5 mM), the indicated transport inhibitor (50 or 100 μM), or the combination thereof, as well as increasing concentrations of spermidine (0.1 to 300 μM). Fresh medium was added every other day, and cell mass was determined at various time points during the period of exponential growth, or at the end of the experimental period. For the latter experiments, the FBS supplement was replaced with dextran-coated charcoal-treated FBS (5%, v/v) plus 0.5 μg/ml insulin in the case of T-47D, ZR-75-1 and MCF-7 cells (U.S. Pat. No. 6,083,496).

[3] = test system: MDA-MB-231 human breast cancer xenograft; test: MDA-MB-231 human breast cancer xenograft in nude mice; format: in vivo, immunodeficient CD-1 mice; details: 39 d
Experimental: (§1) In particular, the mice have been treated with the following compounds: BNSD-X (1% w/v) (●), 0.3 (w/v) DFMO (□), 0.3% DFMO+BNSD-X (▪), 1% (w/v) DFMO (Δ), or 1% DFMO+BNSD-X (▴). Drugs were dissolved in drinking water which was given ad libitum to the animals. Control mice (∘) received distilled water only;
as §1, with “only; and” for “only;”
In particular, these compounds are BNSD-X (1% w/v), 0.3 (w/v) DFMO, 0.3% DFMO+BNSD-X, 1% (w/v) DFMO, or 1% DFMO+BNSD-X Drugs were dissolved in drinking water which was given ad libitum to the animals. Control mice received distilled water only.
For human xenograft experiments, athymic CD-1 mice were inoculated with 5×10^6 MDA-MB-231 human breast cancer cells (grown in tissue culture incubators to mid-exponential phase) in both sides of the inguinal mammary fat pad. After ˜2 weeks, when the tumor had reached a diameter ˜4 mm (as measured with a caliper), control mice were paired to treated ones in accordance with tumor volume (time zero). Animals were allowed free access to water containing 0, 0.3 or 1% DFMO (w/v), plus or minus 1% (w/v) BNSD-X (7 mice/experimental group). Tumor volume (V) was measured twice weekly with a caliper in 2 dimensions using the approximation V=(L×w^2)/2, where L is the length and w is the width of the xenograft (Bandyopadhyay et al., (2002) Cancer Res. 62:4690-4695). Animals were sacrificed after 39 d (i.e. when tumor size in control mice had reached about 500 mm^3). Mammary tumors were be excised and weighed.
The efficacy of BNSD-X as a chemotherapeutic agent was assessed in the MDA-MB-231 model of human breast cancer xenograft in the nude mouse, a model which is known to be sensitive to polyamine depletion by DFMO (Weeks et al., (2000) Exp Cell Res. 261:293-302). For that purpose, MDA-MB-231 cells were injected in the left and right mammary fat pads of immunodeficient CD-1 mice. Mice were then allowed to drink either BNSD-X at the optimal concentration (1%, w/v), as well as DFMO at either 0.3% or 1% (w/v) plus or minus 1% BNSD-X for 39 days before sacrificing the animals and measuring total final tumor mass (FIG. 12-14). The BNSD-X solution alone or with 0.3% DFMO led to a slight (˜7%) reduction of body weight, which was attenuated by the addition of 1% DFMO (FIG. 13) However, this effect of body weight could largely be accounted on the decreased tumor burden in the BNSD-X treated animals (FIG. 14). […]

[4] = test system: CHO-K1 cells; test: Determination of intracellular polyamine contents in CHO-K1 cells; format: cell-based, Chinese hamster
Experimental: At the indicated time, cells were harvested for the determination of putrescine (A), spermidine (B) and spermine contents (C). Data are presented as the mean±SD for triplicate cultures from one representative experiment; […] At the indicated time intervals, medium was removed, cell monolayers were rinsed twice: with 10 ml of ice-cold Ca^2+/Mg^2+-free phosphate-buffered saline (PBS) (2.7 mM KCl, 1.5 mM KH2PO4, 8.1 mM Na2HPO4, 137 mM NaCl), and cells were harvested by low-speed centrifugation (2400 g for 5 min at 4° C.). […] Polyamine content was then determined by ion-pair reverse phase HPLC with fluorometric detection after post-column derivatization with o-phthaldialdehyde as described (U.S. Pat. No. 6,083,496). […] Pat. No. 6,083,496).

[5] = T-47D breast cancer cells, read-out: Ki, inhibition of [3H]putrescine uptake
[6] = T-47D breast cancer cells, read-out: Ki, inhibition of [3H]spermidine uptake
[7] = T-47D breast cancer cells, read-out: Ki, inhibition of [14C]spermine uptake
[8] = T-47D human breast cancer cells, calculated from IC50, read-out: Ki for the inhibition of spermidine transport (Table 2)

Compound | Ki [1, 5] [µM] | Ki [1, 6] [µM] | Ki [1, 7] [µM] | also measured
NCCCCN(CCCN)Cc1cccc(CN(CCCN)CCCCN)c1 [27b] | 0.19 ± 0.05 | 1.6 ± 0.1 | 2.4 ± 0.3 | –
NCCCN(CCCN)CCCCCN(CCCN)CCCN [21a] | 0.54 ± 0.11 | 3.1 ± 0.5 | 2.6 ± 0.7 | –
NCCCCN(C/C=C/CN(CCCN)CCCCN)CCCN [25b] | 0.27 ± 0.04 | 2 ± 0.5 | 1.6 ± 0.2 | –
NCCCCN(CCCN)CCCN(CCCN)CCCCN [19b] | 0.24 ± 0.03 | 1.7 ± 0.4 | 2.8 ± 0.6 | effect on spermidine-mediated reversal of DFMO-induced growth inhibition, T-47D [2]: significantly potentiated DFMO-induced cytostasis
NCCCCN(CCCN)CCN(CCCN)CCCCN [18b] | 0.65 ± 0.07 | 3 ± 0.5 | 5.9 ± 1.1 | –
NCCCCN [Putrescine, 1,4-diaminobutane, reference compound] | – | – | – | Km ([1]; T-47D breast cancer cells, read-out: Km for [3H]putrescine uptake): 7.4 ± 1.1 µM; Ki [1, 8]: > 500 µM
NCCCNCCCC(NCCCN)C(=O)NCCSSCCNC(=O)C(CCCNCCCN)NCCCN (centres unmarked) [DESC, 2,2′-dithiobis(N-ethyl-spermine-5-carboxamide), reference compound] | 3.1 ± 0.4 | 12.6 ± 1.4 | 15.9 ± 4 | –
NCCCN(CC#CCN(CCCN)CCCN)CCCN [26a] | 2.6 ± 0.4 | 25.6 ± 4 | 12.8 ± 2.2 | –
NCCCCN(CCCN)CCCCCN(CCCN)CCCCN [21b] | 0.57 ± 0.1 | 0.83 ± 0.08 | 8 ± 1.1 | –
NCCCN(CCCN)Cc1cccc(CN(CCCN)CCCN)c1 [27a] | 0.64 ± 0.08 | 3 ± 0.5 | 5.7 ± 1.3 | –
NCCCN(CCCN)CCCCN(CCCN)CCCN [20a] | 0.72 ± 0.2 | 4.9 ± 0.1 | 4.3 ± 0.7 | –
NCCCN(CCCN)CCN(CCCN)CCCN [18a] | 1.2 ± 0.2 | 17.3 ± 1.4 | 20.4 ± 6.9 | –
NCCCNCCCCNCCCN [Spermine, reference compound] | 0.65 ± 0.12 | 0.92 ± 0.08 | – | Km ([1]; T-47D breast cancer cells, read-out: Km for [14C]spermine uptake): 2.7 ± 0.4 µM; Ki [1, 8]: 2.1 ± 0.2 µM
NCCCCN(CCCN)CCCCCCN(CCCN)CCCCN [22b] | 0.91 ± 0.11 | 0.69 ± 0.16 | 6.3 ± 0.8 | –
NCCCCN(CCCN)CCCCCCCCCCN(CCCN)CCCCN [24b] | 0.14 ± 0.01 | 1.2 ± 0.2 | 1.9 ± 0.3 | –
NCCCCN(CCCN)CCCCN(CCCN)CCCCN [20b] | 0.52 ± 0.06 | 2.4 ± 0.4 | 6.2 ± 0.6 | –
NCCCCN(CCCN)CCCCCCCCN(CCCN)CCCCN [23b] | 0.44 ± 0.07 | 3 ± 0.2 | 3.6 ± 0.7 | –
NCCCN(CCCN)CCCCCCCCN(CCCN)CCCN [23a] | 0.66 ± 0.06 | 7.5 ± 1.6 | 7 ± 1 | –
NCCCN(CCCN)CCCCCCCCCCN(CCCN)CCCN [24a] | 1.6 ± 0.4 | 1.5 ± 0.2 | 2.4 ± 0.7 | –
NCCCN(CCCN)CCCCCCN(CCCN)CCCN [22a] | 0.72 ± 0.18 | 2.4 ± 0.3 | 0.82 ± 0.1 | –
NCCC[C@](N)(C(=O)O)C(F)F [DFMO, α-difluoromethylornithine, reference compound] | – | – | – | reduction of tumor burden ([3]; DFMO alone (0.3%)): 50±6%; growth inhibition (tumor) ([3]; DFMO alone (1%)): 73±7%; decrease of the intracellular spermidine pool by DFMO alone ([4]; after a 24-h lag period, up to 4 days): 80%; effect on intracellular putrescine content ([4]; single agent): rapidly led to putrescine depletion; effect on intracellular spermine content ([4]; up to 4 days): little effect on spermine content
NCCCNCCCCN(CCCN)Cc1ccc(CN(CCCN)CCCCNCCCN)cc1 [BSM-X] | – | – | – | fold lower apparent Ki for spermidine uptake inhibition relative to the spermine monomer ([1]; T-47D cells): 2 fold; Ki [1, 8]: 1.1 ± 0.1 µM
NCCCN(C/C=C/CN(CCCN)CCCN)CCCN [25a] | 0.1 ± 0.01 | 1.8 ± 0.1 | 1.5 ± 0.1 | –
NCCCCN(CC#CCN(CCCN)CCCCN)CCCN [26b] | 1.9 ± 0.4 | 16.9 ± 2 | 27.7 ± 3.2 | –
